According to patent US8614246B2, “Indole derivatives for treating neurodegenerative diseases” (Centre National de la Recherche Scientifique (CNRS), priority 2009, dated 2013):

Legend:
[1] = tested on: dopaminergic neurons (TH+ neurons) in primary cultures of ventral mesencephalon; assay: Neuritogenesis: total neuritic length per dopaminergic neuron in primary cultures of ventral mesencephalon; format: cell-based; settings: Product 10 nM, 8 days culture, rat embryo ventral mesencephalon; untreated control = 100
Protocol: (§1) Dissection. Dissection consists of extracting embryos from the uterus of a rat after fifteen days of gestation. The brain of each embryo is then dissected under magnifying binoculars in order to extract the ventral mesencephalus.
(§2) Seeding. Mesencephalons are grouped in a flask containing 2 mL of L15 medium and then mechanically dissociated (30 repeat operations), 5 mL of L15 medium are added. The suspension is allowed to stand for 8 minutes. The 5 mL float is then recovered in a new flask and the cells are dissociated again (30 repeat operations). 5 mL of L15 is added again and the suspension is left to stand for 8 minutes. The 5 mL float is added to the previous float. The cells thus extracted are then centrifuged for 5 minutes at 1000 rpm^−1. The cell sediment is dissolved in a Neurobasal medium supplemented with 1% of B27, 1% of glutamine and 1% of a mixture of penicillin and streptomycin. The cells are then seeded at an appropriate dilution (0.6 embryos per well in 24-well plates and 0.4 per well in 48-well plates). The cultures are incubated at 37° C. in a wet atmosphere enriched with 5% CO2 in 24-well or 48-well plates.
(§3) Treatment. After 24 hours, two-thirds of the medium in each well is replaced by a new medium enriched with the product to be tested at the appropriate dilution. The medium is replaced in the same way after 4 days of culture.
(§4) Immunohistochemistry. After 8 days culture, the cells are fixed by a solution of 4% formaldehyde and then washed three times with PBS. The cells are then submitted to anti-tyrosine hydroxylase (TH) immunohistochemistry, developed by a secondary antibody coupled to a fluorophore emitting in the red (Cy3).
(§5) Analyses. Neuroprotection is evaluated by counting positive TH neurons with 10 fields per well directly under an inverted fluorescence microscope, reported as a percentage of the untreated control. Experiments are done on three wells per condition. Three independent experiments are done under these conditions. The total neuritic length per cell is calculated using Explora Nova's Neurite Outgrowth software on 60 to 100 neurons photographed independently per condition.
(§6) Primary cultures of ventral mesencephalon of rat embryos after 15.5 days of gestation under conditions causing spontaneous death of dopaminergic neurons, are maintained in the presence or absence of the compounds to be tested for 8 days. After fixing, the cultures are submitted to immunocytochemistry directed against tyrosine hydroxylase, a specific marker of dopaminergic neurons.
Neuritogenesis is quantified by measuring the total neuritic length per dopaminergic neuron (neuritic length/TH^+ neuron) using an image analyser on a minimum of sixty photographed neurons per condition (10-30% of all dopaminergic neurons).
(§7) All experiments were done by comparison with a positive control, dibutyryl-AMP cyclic (db-AMPc) (Mourlevat S. et al. Mol. Pharmacol. 2003, 64 (3), 578-586).

[2] = tested on: reactive oxygen species (ROS) in neurones of ventral mesencephalon cultures; assay: Cellular test with dihydrorhodamine 123 (DHR-123); format: cell-based, rat; settings: compounds 10 nM for eight days, 50 μM DHR-123 30 minutes; control = 100; Trolox at 10 μM per FIG. 1
Protocol: Dihydrorhodamine 123 or DHR123 is used as an indicator of reactive oxygen species (ROS). It is uncharged and not fluorescent and passes passively through the cellular membrane before being oxidised in contact with free radicals, into rhodamine 123 emitting green fluorescence.
The quantity of intracellular ROS is reduced when the cells are treated by an anti-oxidant. This reduction results in a quantifiable decay in emitted fluorescence in the presence of DHR123.
In order to conclude the role of the anti-oxidant capacity of compounds according to the invention in the observed neuroprotectrive activity, the cultures were placed strictly under the same conditions as for the neuroprotection/neuritogenesis test. Thus, the cultures were kept for eight days in the presence of a concentration of 10 nM of each of the tested tryptaminic derivatives. On the 8th day in vitro (DIV 8), 50 μM of DHR-123 (Sigma) was added and the cells were incubated for 30 minutes at 37° C. They were then washed three times, treated once again by compounds according to the invention and placed in a medium without any phenol red. Living fluorescent neurones that were immediately photographed can be observed, the fluorescence density per neurone being quantified under an inverted fluorescence microscope by an image analysis software.

[3] = tested on: dopaminergic neurons (TH+ neurons) in primary cultures of ventral mesencephalon; assay: Neuroprotection: counting of remaining TH+ neurons in primary cultures of ventral mesencephalon (spontaneous death of dopaminergic neurons); format: cell-based; settings: Product 10 nM, 8 days culture, rat embryo ventral mesencephalon; untreated control = 100
Protocol: as §1, §2, §3, §4, §5, §6
The neuroprotective potential of each compound is then estimated by counting the number of remaining neurons (TH^+ neurons) under a fluorescence microscope. The results for the different treatments are expressed as a percentage of the number of neurons remaining relative to untreated cultures (Control).
as §7

[4] = Test with ABTS (anti-oxidant capacity, hydroxyl radicals generated by Fenton's reaction); format: biochemical; settings: 30 minutes at ambient temperature, range 10 nM to 1 mM, read-out: IC50 ± SEM (concentration at which 50% of hydroxyl radicals have been reduced) (converted)
Text: ABTS or 2,2′-azino-bis-(3-ethylbenzthiazoline-6-sulfonic) acid is a coloured indicator of the presence of hydroxyl radicals in solution. The attack of a hydroxyl radical on ABTS generates the formation of an ATBS^+. cation radical (Equation 1). This coloured entity makes the absorbance (Abs) of the solution equal to 450 nm. ABTS+HO. ? ABTS^+. +HO^− Equation 1
During the test, hydroxyl radicals are generated by Fenton's reaction in the presence of iron and hydrogen peroxide (Equation 2) H2O2+Fe^2+ ? HO. +HO^−+Fe^3+ Equation 2
When a radical trap or antioxidant is present in solution, competition with ABTS is set up for reduction of hydroxyl radicals, which reduces the absorbance (Abs) at 450 nm.
The percentage of hydroxyl radicals converted into hydroxyl ions (% conversion) by the compound of interest may be calculated using Formula 1: […]
The anti-oxidant capacity of a compound may then be expressed in the form of IC50 that reflects the concentration at which 50% of hydroxyl radicals have been reduced by the tested compound.
Thus, the compounds to be tested and Trolox® were solubilised in ethanol so as to obtain solutions at 1 mM. We used cascade dilutions to obtain a concentration range varying from 1 mM to 10 nM. 90 μL of a 1:1 water-ethanol mixture was then added onto an ELISA 96-well plate, followed by 15 μL of an aqueous solution of ABTS at 1 mM, 15 μL of an aqueous solution of Fe2SO4 at 0.5 mM, 15 μL of each compound to be tested at different concentrations, and then 15 μl of an aqueous solution of hydrogen peroxide at 100 mM. The mixtures thus obtained were stirred at ambient temperature sheltered from air for 30 minutes, and the value of the absorbance at […] was then measured. The capacity of each compound to reduce hydroxyl radicals is determined by the reduction in absorbance at 450 nm, the control solution being composed of pure ethanol. Therefore, the ABTS test was made in comparison with Trolox®. The same ranges from 10 nm to 1 mM of indoles 1a, 1c, 1g, 1i, 2a, 4c, 2g, 2h and 2i were tested.

Question: For `CCCCCCCCCCCCCCCC(=O)NCCc1c[nH]c2ccccc12` [Compound 1c, N-(2-(1H-indol-3-yl)ethyl)hexadecanamide], which “Neuritic length/TH+ neuron, % relative to control ± SEM” value [1] is on record?
Answer: 168.6 ± 11.5 %

Question: And the “IF/neurone (%) (fluorescence intensity per neurone)” value [2]?
Answer: 55.9 ± 3.0 %

Question: What about the “TH+ neurons, % relative to control ± SEM” value [3] of the same molecule?
Answer: 121.3 ± 3.2 %

Question: What does the source list for `CCCCCCCCCCCCCCCCCCCC(=O)NCCc1c[nH]c2ccccc12` [Compound 1f, N-(2-(1H-indol-3-yl)ethyl)icosanamide]?
Answer: Neuritic length/TH+ neuron, % relative to control ± SEM [1]: 147.4 ± 7.0 %; TH+ neurons, % relative to control ± SEM [3]: 121.8 ± 2.0 %

Question: Which “IF/neurone (%) (fluorescence intensity per neurone)” value [2] does the source give for `O=C(CCCCCCCCCCCCCCO)NCCc1c[nH]c2ccccc12` [Compound 1i, N-(2-(1H-indol-3-yl)ethyl)-15-hydroxypentadecanamide] here?
Answer: 56.5 ± 2.7 %

Question: Which IC50 [4] does the source give for `CCCCCCCCCCCCCNCCc1c[nH]c2ccccc12` [Compound 2a, N-(2-(1H-indol-3-yl)ethyl)tridecan-1-amine] here?
Answer: 810 ± 140 µM

Question: With `CCCCCCCCCCCCCCCCCCNCCc1c[nH]c2ccccc12` [Compound 2e, N-(2-(1H-indol-3-yl)ethyl)octadecan-1-amine] as the molecule, how does the “Neuritic length/TH+ neuron, % relative to control ± SEM” value [1] read?
Answer: 157.3 ± 10.3 %

Question: What about the “TH+ neurons, % relative to control ± SEM” value [3] of the same molecule?
Answer: 129.9 ± 3.5 %

Question: With `CCCCCCCCCCCCCCCCCCCCNCCc1c[nH]c2ccccc12` [Compound 2f] as the molecule, how does the “Neuritic length/TH+ neuron, % relative to control ± SEM” value [1] read?
Answer: 132.6 ± 6.2 %

Question: And the “TH+ neurons, % relative to control ± SEM” value [3]?
Answer: 128.9 ± 3.4 %

Question: What does the source list for `CCCCCCCCCCCCCCCCCCCCCCCNCCc1c[nH]c2ccccc12` [Compound 2g, N-(2-(1 H-indol-3-yl)ethyl)tricosan-1-amine]?
Answer: Neuritic length/TH+ neuron, % relative to control ± SEM [1]: 141.2 ± 5.0 %; IC50 [4]: 670 µM; TH+ neurons, % relative to control ± SEM [3]: 129.6 ± 3.5 %

Question: For `OCCCCCCCCCCCCCCCNCCc1c[nH]c2ccccc12` [Compound 2i, N-(2-(1H-indol-3-yl)ethyl)-15-hydroxypentadecanamine], which “Neuritic length/TH+ neuron, % relative to control ± SEM” value [1] is on record?
Answer: 160.8 ± 13.8 %

Question: And the “IF/neurone (%) (fluorescence intensity per neurone)” value [2]?
Answer: 44.0 ± 3.6 %

Question: And the IC50 [4]?
Answer: 730 ± 10 µM

Question: What about the “TH+ neurons, % relative to control ± SEM” value [3] of the same molecule?
Answer: 129.4 ± 5.0 %

Question: With `Cc1c(C)c2c(c(C)c1O)CCC(C)(C(=O)O)O2` (stereo not shown) [Trolox ®, reference compound] as the molecule, how does the “IF/neurone (%) (fluorescence intensity per neurone)” value [2] read?
Answer: 44.0 ± 2.8 %

Question: And the IC50 [4]?
Answer: 550 ± 20 µM

Question: With `CCCC(=O)Nc1ncnc2c1ncn2[C@@H]1O[C@@H]2COP(=O)(O)O[C@H]2[C@H]1OC(=O)CCC` [db-AMPc, dibutyryl-AMP cyclic, reference compound] as the molecule, how does the “Neuritic length/TH+ neuron, % relative to control ± SEM” value [1] read?
Answer: 333.1 ± 8.7 %

Question: And the “TH+ neurons, % relative to control ± SEM” value [3]?
Answer: 149.9 ± 3.6%
